Laboratory results from ChEMBL document CHEMBL3739350, “Novel hydrazone moiety-bearing aminopyrimidines as selective inhibitors of epidermal growth factor receptor T790M mutant” (Eur J Med Chem, 2015).

Tested on: HT-29
Experiment: cells
Format: functional, cell-based
Settings: Homo sapiens, HT-29, 72 h
Description: Cytotoxicity against human HT-29 cells assessed as inhibition of cell proliferation after 72 hrs by MTT assay

SMILES	IC50 [µM]
COc1ccc(/C=N/Nc2ncc(Cl)c(Nc3cccc(NC(=O)/C=C/CN(C)C)c3)n2)cc1	4.82
COc1cccc(/C(C)=N/Nc2ncc(Cl)c(Nc3cccc(NC(=O)/C=C/CN(C)C)c3)n2)c1	3.87
C=CC(=O)Nc1cccc(Nc2nc(N/N=C(\C)c3ccc(F)cc3F)ncc2Cl)c1	4.36
CN(C)C/C=C/C(=O)Nc1cccc(Nc2nc(N/N=C/c3ccncc3)ncc2Cl)c1	25.2
C=CC(=O)Nc1cccc(Nc2nc(N/N=C/c3ccc(F)cc3)ncc2Cl)c1	6.34
CN(C)C/C=C/C(=O)Nc1cccc(Nc2nc(N/N=C/c3c[nH]c4ccccc34)ncc2Cl)c1	9.68
CN(C)C/C=C/C(=O)Nc1cccc(Nc2nc(N/N=C/c3cn(Cc4ccccc4)c4ccccc34)ncc2Cl)c1	2.12
C/C(=N\Nc1ncc(Cl)c(Nc2cccc(NC(=O)/C=C/CN(C)C)c2)n1)c1ccccn1	0.12
C/C(=N\Nc1ncc(Cl)c(Nc2cccc(NC(=O)/C=C/CN(C)C)c2)n1)c1ccncc1	10.9
C=CC(=O)Nc1cccc(Nc2nc(N/N=C(\C)c3ccncc3)ncc2Cl)c1	12.8
C/C(=N\Nc1ncc(Cl)c(Nc2cccc(NC(=O)/C=C/CN(C)C)c2)n1)c1cccnc1	9.66

Other lines, results leading:

IC50 [µM]	SMILES
2.95	C=CC(=O)Nc1cccc(Oc2nc(Nc3ccc(N4CCN(C)CC4)cc3OC)ncc2Cl)c1
6.83	COc1ccc(/C(C)=N/Nc2ncc(Cl)c(Nc3cccc(NC(=O)/C=C/CN(C)C)c3)n2)cc1
3.5	C=CC(=O)Nc1cccc(Nc2nc(N/N=C/c3ccccc3F)ncc2Cl)c1
10.2	C/C(=N\Nc1ncc(Cl)c(Nc2cccc(NC(=O)/C=C/CN(C)C)c2)n1)c1ccc(F)cc1
4.56	C=CC(=O)Nc1cccc(Nc2nc(N/N=C(\C)c3ccc(OC)cc3)ncc2Cl)c1
8.99	C=CC(=O)Nc1cccc(Nc2nc(N/N=C(\C)c3cccc(OC)c3)ncc2Cl)c1
4.76	C=CC(=O)Nc1cccc(Nc2nc(N/N=C/c3ccc(F)cc3F)ncc2Cl)c1
3.46	C/C(=N\Nc1ncc(Cl)c(Nc2cccc(NC(=O)/C=C/CN(C)C)c2)n1)c1ccc(F)cc1F
5.05	C=CC(=O)Nc1cccc(Nc2nc(N/N=C(\C)c3ccc(F)cc3)ncc2Cl)c1
3.21	C=CC(=O)Nc1cccc(Nc2nc(N/N=C(\C)c3ccc(C)cc3)ncc2Cl)c1
11	C=CC(=O)Nc1cccc(Nc2nc(N/N=C/c3cn(Cc4ccccc4)c4ccccc34)ncc2Cl)c1
11.8	C/C(=N\Nc1ncc(Cl)c(Nc2cccc(NC(=O)/C=C/CN(C)C)c2)n1)c1ccc(C)cc1
2.92	CN(C)C/C=C/C(=O)Nc1cccc(Nc2nc(N/N=C/c3ccc(F)cc3F)ncc2Cl)c1
12.3	Nc1cccc(Nc2nc(N/N=C/c3ccc(F)cc3)ncc2Cl)c1

Target: Epidermal growth factor receptor (Homo sapiens, UniProt P00533)
Experiment: Inhibition of wild type recombinant human EGFR preincubated for 10 mins followed by FAM-labeled peptide/ATP addition measured after 1 hr by mobility shift assay
Settings: not given

Chain of Epidermal growth factor receptor (Homo sapiens, UniProt P00533) (P00533 whole entry): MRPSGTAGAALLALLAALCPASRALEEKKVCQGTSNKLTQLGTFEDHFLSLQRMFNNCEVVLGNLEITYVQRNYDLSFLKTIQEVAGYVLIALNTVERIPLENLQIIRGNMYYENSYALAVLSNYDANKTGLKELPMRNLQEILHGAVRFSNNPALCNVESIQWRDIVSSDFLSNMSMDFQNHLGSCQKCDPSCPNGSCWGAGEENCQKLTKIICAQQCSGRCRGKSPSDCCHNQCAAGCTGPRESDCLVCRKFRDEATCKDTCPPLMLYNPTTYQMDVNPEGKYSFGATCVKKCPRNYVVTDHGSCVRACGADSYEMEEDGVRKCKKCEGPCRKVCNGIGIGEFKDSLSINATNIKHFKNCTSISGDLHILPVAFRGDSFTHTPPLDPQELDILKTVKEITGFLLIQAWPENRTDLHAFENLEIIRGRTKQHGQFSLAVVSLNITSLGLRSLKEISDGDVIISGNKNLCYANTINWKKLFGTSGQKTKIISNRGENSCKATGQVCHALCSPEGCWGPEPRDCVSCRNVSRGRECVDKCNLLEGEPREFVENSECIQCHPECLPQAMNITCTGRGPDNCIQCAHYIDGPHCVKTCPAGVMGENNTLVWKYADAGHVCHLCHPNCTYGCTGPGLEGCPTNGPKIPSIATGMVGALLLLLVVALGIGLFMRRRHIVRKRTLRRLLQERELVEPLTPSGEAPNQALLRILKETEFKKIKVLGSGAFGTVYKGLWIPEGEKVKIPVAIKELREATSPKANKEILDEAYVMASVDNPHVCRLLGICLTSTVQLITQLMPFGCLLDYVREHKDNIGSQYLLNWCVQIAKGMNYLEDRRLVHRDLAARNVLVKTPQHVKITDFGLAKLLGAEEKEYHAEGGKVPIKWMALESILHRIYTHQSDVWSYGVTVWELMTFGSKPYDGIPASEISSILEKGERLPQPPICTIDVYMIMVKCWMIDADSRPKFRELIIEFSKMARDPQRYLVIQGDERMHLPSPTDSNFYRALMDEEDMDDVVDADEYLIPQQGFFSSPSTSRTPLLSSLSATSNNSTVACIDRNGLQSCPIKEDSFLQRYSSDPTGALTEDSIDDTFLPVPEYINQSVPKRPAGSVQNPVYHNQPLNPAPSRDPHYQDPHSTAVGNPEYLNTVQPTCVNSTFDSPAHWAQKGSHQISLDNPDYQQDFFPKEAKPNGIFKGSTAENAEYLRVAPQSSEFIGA

SMILES	IC50 [µM]
C=CC(=O)Nc1cccc(Nc2nc(N/N=C(\C)c3ccc(F)cc3F)ncc2Cl)c1	11.8
C=CC(=O)Nc1cccc(Nc2nc(N/N=C/c3ccc(F)cc3)ncc2Cl)c1	> 20
CN(C)C/C=C/C(=O)Nc1cccc(Nc2nc(N/N=C/c3c[nH]c4ccccc34)ncc2Cl)c1	> 20
CN(C)C/C=C/C(=O)Nc1cccc(Nc2nc(N/N=C/c3cn(Cc4ccccc4)c4ccccc34)ncc2Cl)c1	> 20
C/C(=N\Nc1ncc(Cl)c(Nc2cccc(NC(=O)/C=C/CN(C)C)c2)n1)c1ccccn1	> 20
C/C(=N\Nc1ncc(Cl)c(Nc2cccc(NC(=O)/C=C/CN(C)C)c2)n1)c1cccnc1	> 20

Results, then the compound that gave them:

IC50 [µM]	SMILES
> 20	C=CC(=O)Nc1cccc(Nc2nc(N/N=C/c3ccccc3F)ncc2Cl)c1
15.3	C/C(=N\Nc1ncc(Cl)c(Nc2cccc(NC(=O)/C=C/CN(C)C)c2)n1)c1ccc(F)cc1
> 20	C=CC(=O)Nc1cccc(Nc2nc(N/N=C/c3ccc(F)cc3F)ncc2Cl)c1
> 20	C/C(=N\Nc1ncc(Cl)c(Nc2cccc(NC(=O)/C=C/CN(C)C)c2)n1)c1ccc(F)cc1F
> 20	C=CC(=O)Nc1cccc(Nc2nc(N/N=C(\C)c3ccc(F)cc3)ncc2Cl)c1
> 20	C=CC(=O)Nc1cccc(Nc2nc(N/N=C(\C)c3ccc(C)cc3)ncc2Cl)c1
> 20	CN(C)C/C=C/C(=O)Nc1cccc(Nc2nc(N/N=C/c3ccc(F)cc3F)ncc2Cl)c1

Target: Epidermal growth factor receptor (Homo sapiens, UniProt P00533, T790M)
Experiment: not given
Format: protein assay
Settings: not given

Chain of Epidermal growth factor receptor (Homo sapiens, UniProt P00533, T790M) (P00533 25-1210 T790M limits assumed): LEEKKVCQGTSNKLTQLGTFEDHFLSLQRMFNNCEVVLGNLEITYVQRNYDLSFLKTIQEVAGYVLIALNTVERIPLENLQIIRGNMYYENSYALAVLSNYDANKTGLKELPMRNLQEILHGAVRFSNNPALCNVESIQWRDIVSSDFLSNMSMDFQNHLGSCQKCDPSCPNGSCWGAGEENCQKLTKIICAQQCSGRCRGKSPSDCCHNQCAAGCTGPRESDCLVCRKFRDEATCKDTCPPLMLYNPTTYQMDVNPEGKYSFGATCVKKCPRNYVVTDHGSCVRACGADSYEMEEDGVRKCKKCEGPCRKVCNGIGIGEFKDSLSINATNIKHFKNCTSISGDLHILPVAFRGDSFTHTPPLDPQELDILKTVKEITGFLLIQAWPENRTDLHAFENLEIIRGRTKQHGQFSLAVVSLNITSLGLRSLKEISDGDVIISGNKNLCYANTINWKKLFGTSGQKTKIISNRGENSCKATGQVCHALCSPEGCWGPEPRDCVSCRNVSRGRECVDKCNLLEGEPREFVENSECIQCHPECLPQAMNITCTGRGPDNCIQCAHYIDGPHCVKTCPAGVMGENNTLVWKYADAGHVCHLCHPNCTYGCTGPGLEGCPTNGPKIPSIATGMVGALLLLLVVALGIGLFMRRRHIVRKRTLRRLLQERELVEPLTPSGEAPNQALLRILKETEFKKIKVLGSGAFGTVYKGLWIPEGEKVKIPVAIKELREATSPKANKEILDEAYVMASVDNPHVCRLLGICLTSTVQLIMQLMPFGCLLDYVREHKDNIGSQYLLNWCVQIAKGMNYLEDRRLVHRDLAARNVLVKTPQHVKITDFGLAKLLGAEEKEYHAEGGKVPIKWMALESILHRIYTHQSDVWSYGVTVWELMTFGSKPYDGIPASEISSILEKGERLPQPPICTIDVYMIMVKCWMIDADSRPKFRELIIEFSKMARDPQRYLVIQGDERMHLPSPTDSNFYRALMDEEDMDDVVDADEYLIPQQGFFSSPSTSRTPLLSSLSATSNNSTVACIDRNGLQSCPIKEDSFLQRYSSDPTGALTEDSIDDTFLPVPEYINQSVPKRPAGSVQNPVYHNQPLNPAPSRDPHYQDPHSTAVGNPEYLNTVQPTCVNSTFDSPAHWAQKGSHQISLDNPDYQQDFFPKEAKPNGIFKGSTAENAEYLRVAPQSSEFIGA

SMILES	IC50 [µM]
C=CC(=O)Nc1cccc(Nc2nc(N/N=C/c3ccc(F)cc3)ncc2Cl)c1	1.12
CN(C)C/C=C/C(=O)Nc1cccc(Nc2nc(N/N=C/c3cn(Cc4ccccc4)c4ccccc34)ncc2Cl)c1	0.79

The remaining lines, values ahead:

IC50 [µM]	SMILES
4.74	C=CC(=O)Nc1cccc(Nc2nc(N/N=C/c3ccccc3F)ncc2Cl)c1
0.82	C/C(=N\Nc1ncc(Cl)c(Nc2cccc(NC(=O)/C=C/CN(C)C)c2)n1)c1ccc(F)cc1F
2.53	C=CC(=O)Nc1cccc(Nc2nc(N/N=C(\C)c3ccc(F)cc3)ncc2Cl)c1
2.51	CN(C)C/C=C/C(=O)Nc1cccc(Nc2nc(N/N=C/c3ccc(F)cc3F)ncc2Cl)c1

Tested on: A549
Experiment: Antiproliferative activity against human A549 cells harboring wild type EGFR/k-Ras mutation after 72 hrs by MTT assay
Format: functional, cell-based
Settings: A549, 72 h

SMILES	IC50 [µM]
COc1ccc(/C=N/Nc2ncc(Cl)c(Nc3cccc(NC(=O)/C=C/CN(C)C)c3)n2)cc1	6.24
COc1cccc(/C(C)=N/Nc2ncc(Cl)c(Nc3cccc(NC(=O)/C=C/CN(C)C)c3)n2)c1	11.4
C=CC(=O)Nc1cccc(Nc2nc(NNC(=O)c3ccc(OC)cc3)ncc2Cl)c1	26
C=CC(=O)Nc1cccc(Nc2nc(N/N=C(\C)c3ccc(F)cc3F)ncc2Cl)c1	1.63
CN(C)C/C=C/C(=O)Nc1cccc(Nc2nc(N/N=C/c3ccncc3)ncc2Cl)c1	47.7
C=CC(=O)Nc1cccc(Nc2nc(N/N=C/c3ccc(F)cc3)ncc2Cl)c1	10.4
CN(C)C/C=C/C(=O)Nc1cccc(Nc2nc(N/N=C/c3c[nH]c4ccccc34)ncc2Cl)c1	28.7
C=CC(=O)Nc1cccc(Nc2nc(NNC(=O)c3ccc(F)cc3)ncc2Cl)c1	31
CN(C)C/C=C/C(=O)Nc1cccc(Nc2nc(N/N=C/c3cn(Cc4ccccc4)c4ccccc34)ncc2Cl)c1	2.91
C/C(=N\Nc1ncc(Cl)c(Nc2cccc(NC(=O)/C=C/CN(C)C)c2)n1)c1ccccn1	0.83
C/C(=N\Nc1ncc(Cl)c(Nc2cccc(NC(=O)/C=C/CN(C)C)c2)n1)c1ccncc1	34.9
C=CC(=O)Nc1cccc(Nc2nc(N/N=C(\C)c3ccncc3)ncc2Cl)c1	28.7
C/C(=N\Nc1ncc(Cl)c(Nc2cccc(NC(=O)/C=C/CN(C)C)c2)n1)c1cccnc1	17.3

Further lines, results first:

IC50 [µM]	SMILES
1.87	C=CC(=O)Nc1cccc(Oc2nc(Nc3ccc(N4CCN(C)CC4)cc3OC)ncc2Cl)c1
7.12	COc1ccc(/C(C)=N/Nc2ncc(Cl)c(Nc3cccc(NC(=O)/C=C/CN(C)C)c3)n2)cc1
6.06	C=CC(=O)Nc1cccc(Nc2nc(N/N=C/c3ccccc3F)ncc2Cl)c1
8.96	C/C(=N\Nc1ncc(Cl)c(Nc2cccc(NC(=O)/C=C/CN(C)C)c2)n1)c1ccc(F)cc1
7.71	C=CC(=O)Nc1cccc(Nc2nc(N/N=C(\C)c3ccc(OC)cc3)ncc2Cl)c1
10.3	C=CC(=O)Nc1cccc(Nc2nc(N/N=C(\C)c3cccc(OC)c3)ncc2Cl)c1
11.2	C=CC(=O)Nc1cccc(Nc2nc(N/N=C/c3ccc(F)cc3F)ncc2Cl)c1
5.57	C/C(=N\Nc1ncc(Cl)c(Nc2cccc(NC(=O)/C=C/CN(C)C)c2)n1)c1ccc(F)cc1F
8.2	C=CC(=O)Nc1cccc(Nc2nc(N/N=C(\C)c3ccc(F)cc3)ncc2Cl)c1
5.36	C=CC(=O)Nc1cccc(Nc2nc(N/N=C(\C)c3ccc(C)cc3)ncc2Cl)c1
> 100	C=CC(=O)Nc1cccc(Nc2nc(N/N=C/c3cn(Cc4ccccc4)c4ccccc34)ncc2Cl)c1
10.8	C/C(=N\Nc1ncc(Cl)c(Nc2cccc(NC(=O)/C=C/CN(C)C)c2)n1)c1ccc(C)cc1
2.17	CN(C)C/C=C/C(=O)Nc1cccc(Nc2nc(N/N=C/c3ccc(F)cc3F)ncc2Cl)c1
13.7	Nc1cccc(Nc2nc(N/N=C/c3ccc(F)cc3)ncc2Cl)c1

Target: Epidermal growth factor receptor (Homo sapiens, UniProt P00533, L858R/T790M)
Experiment: not given
Format: protein assay
Settings: not given

Chain of Epidermal growth factor receptor (Homo sapiens, UniProt P00533, L858R/T790M) (P00533 25-1210 T790M/L858R limits assumed): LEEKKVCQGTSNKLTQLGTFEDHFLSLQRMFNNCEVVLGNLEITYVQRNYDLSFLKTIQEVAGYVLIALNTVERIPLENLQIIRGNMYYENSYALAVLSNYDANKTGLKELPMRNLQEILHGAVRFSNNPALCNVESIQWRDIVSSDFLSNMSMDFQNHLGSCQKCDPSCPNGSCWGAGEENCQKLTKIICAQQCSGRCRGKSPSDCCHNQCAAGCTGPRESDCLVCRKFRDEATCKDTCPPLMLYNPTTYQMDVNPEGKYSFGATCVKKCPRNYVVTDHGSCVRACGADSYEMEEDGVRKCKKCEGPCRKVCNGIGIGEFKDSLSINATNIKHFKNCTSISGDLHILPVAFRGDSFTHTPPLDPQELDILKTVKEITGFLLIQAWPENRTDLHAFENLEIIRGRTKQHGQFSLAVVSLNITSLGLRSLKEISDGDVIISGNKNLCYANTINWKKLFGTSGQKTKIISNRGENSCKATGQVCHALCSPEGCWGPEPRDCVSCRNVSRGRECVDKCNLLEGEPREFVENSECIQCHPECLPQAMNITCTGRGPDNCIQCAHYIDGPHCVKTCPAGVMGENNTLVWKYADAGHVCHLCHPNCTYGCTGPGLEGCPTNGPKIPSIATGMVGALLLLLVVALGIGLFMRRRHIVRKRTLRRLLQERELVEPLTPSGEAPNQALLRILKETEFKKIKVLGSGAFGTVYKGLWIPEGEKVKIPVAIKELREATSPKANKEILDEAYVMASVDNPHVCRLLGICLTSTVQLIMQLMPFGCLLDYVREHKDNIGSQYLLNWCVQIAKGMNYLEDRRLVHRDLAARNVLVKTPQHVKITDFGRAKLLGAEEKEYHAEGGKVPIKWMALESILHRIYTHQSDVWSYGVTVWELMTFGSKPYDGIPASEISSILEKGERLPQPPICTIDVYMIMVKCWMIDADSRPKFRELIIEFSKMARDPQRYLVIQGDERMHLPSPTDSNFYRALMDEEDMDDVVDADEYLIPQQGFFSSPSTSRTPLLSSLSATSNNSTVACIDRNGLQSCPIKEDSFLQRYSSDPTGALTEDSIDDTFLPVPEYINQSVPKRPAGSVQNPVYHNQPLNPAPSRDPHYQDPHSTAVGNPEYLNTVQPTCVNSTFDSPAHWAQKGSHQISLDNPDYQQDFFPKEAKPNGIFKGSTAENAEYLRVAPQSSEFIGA

SMILES	IC50 [µM]
C=CC(=O)Nc1cccc(Nc2nc(N/N=C(\C)c3ccc(F)cc3F)ncc2Cl)c1	2.27
C=CC(=O)Nc1cccc(Nc2nc(N/N=C/c3ccc(F)cc3)ncc2Cl)c1	0.86
CN(C)C/C=C/C(=O)Nc1cccc(Nc2nc(N/N=C/c3c[nH]c4ccccc34)ncc2Cl)c1	> 20
CN(C)C/C=C/C(=O)Nc1cccc(Nc2nc(N/N=C/c3cn(Cc4ccccc4)c4ccccc34)ncc2Cl)c1	0.88
C/C(=N\Nc1ncc(Cl)c(Nc2cccc(NC(=O)/C=C/CN(C)C)c2)n1)c1ccccn1	2.38
C/C(=N\Nc1ncc(Cl)c(Nc2cccc(NC(=O)/C=C/CN(C)C)c2)n1)c1cccnc1	4.32

Now from value to compound:

IC50 [µM]	SMILES
1.51	C=CC(=O)Nc1cccc(Nc2nc(N/N=C/c3ccccc3F)ncc2Cl)c1
2.35	C/C(=N\Nc1ncc(Cl)c(Nc2cccc(NC(=O)/C=C/CN(C)C)c2)n1)c1ccc(F)cc1
11.6	C=CC(=O)Nc1cccc(Nc2nc(N/N=C/c3ccc(F)cc3F)ncc2Cl)c1
0.72	C/C(=N\Nc1ncc(Cl)c(Nc2cccc(NC(=O)/C=C/CN(C)C)c2)n1)c1ccc(F)cc1F
1.68	C=CC(=O)Nc1cccc(Nc2nc(N/N=C(\C)c3ccc(F)cc3)ncc2Cl)c1
5.67	C=CC(=O)Nc1cccc(Nc2nc(N/N=C(\C)c3ccc(C)cc3)ncc2Cl)c1
2.52	CN(C)C/C=C/C(=O)Nc1cccc(Nc2nc(N/N=C/c3ccc(F)cc3F)ncc2Cl)c1

Tested on: NCI-H1975
Experiment: cells
Format: functional, cell-based
Settings: Homo sapiens, NCI-H1975, 72 h

SMILES	IC50 [µM]
COc1ccc(/C=N/Nc2ncc(Cl)c(Nc3cccc(NC(=O)/C=C/CN(C)C)c3)n2)cc1	1.58
COc1cccc(/C(C)=N/Nc2ncc(Cl)c(Nc3cccc(NC(=O)/C=C/CN(C)C)c3)n2)c1	0.91
C=CC(=O)Nc1cccc(Nc2nc(NNC(=O)c3ccc(OC)cc3)ncc2Cl)c1	8.46
C=CC(=O)Nc1cccc(Nc2nc(N/N=C(\C)c3ccc(F)cc3F)ncc2Cl)c1	0.3
CN(C)C/C=C/C(=O)Nc1cccc(Nc2nc(N/N=C/c3ccncc3)ncc2Cl)c1	4.13
C=CC(=O)Nc1cccc(Nc2nc(N/N=C/c3ccc(F)cc3)ncc2Cl)c1	0.43
CN(C)C/C=C/C(=O)Nc1cccc(Nc2nc(N/N=C/c3c[nH]c4ccccc34)ncc2Cl)c1	5.45
C=CC(=O)Nc1cccc(Nc2nc(NNC(=O)c3ccc(F)cc3)ncc2Cl)c1	5.31
CN(C)C/C=C/C(=O)Nc1cccc(Nc2nc(N/N=C/c3cn(Cc4ccccc4)c4ccccc34)ncc2Cl)c1	0.26
C/C(=N\Nc1ncc(Cl)c(Nc2cccc(NC(=O)/C=C/CN(C)C)c2)n1)c1ccccn1	0.077
C/C(=N\Nc1ncc(Cl)c(Nc2cccc(NC(=O)/C=C/CN(C)C)c2)n1)c1ccncc1	6.24
C=CC(=O)Nc1cccc(Nc2nc(N/N=C(\C)c3ccncc3)ncc2Cl)c1	3.69
C/C(=N\Nc1ncc(Cl)c(Nc2cccc(NC(=O)/C=C/CN(C)C)c2)n1)c1cccnc1	2.35

More lines, now with the values ahead:

IC50 [µM]	SMILES
0.058	C=CC(=O)Nc1cccc(Oc2nc(Nc3ccc(N4CCN(C)CC4)cc3OC)ncc2Cl)c1
0.99	COc1ccc(/C(C)=N/Nc2ncc(Cl)c(Nc3cccc(NC(=O)/C=C/CN(C)C)c3)n2)cc1
0.29	C=CC(=O)Nc1cccc(Nc2nc(N/N=C/c3ccccc3F)ncc2Cl)c1
1.16	C/C(=N\Nc1ncc(Cl)c(Nc2cccc(NC(=O)/C=C/CN(C)C)c2)n1)c1ccc(F)cc1
1.06	C=CC(=O)Nc1cccc(Nc2nc(N/N=C(\C)c3ccc(OC)cc3)ncc2Cl)c1
1.19	C=CC(=O)Nc1cccc(Nc2nc(N/N=C(\C)c3cccc(OC)c3)ncc2Cl)c1
0.38	C=CC(=O)Nc1cccc(Nc2nc(N/N=C/c3ccc(F)cc3F)ncc2Cl)c1
0.48	C/C(=N\Nc1ncc(Cl)c(Nc2cccc(NC(=O)/C=C/CN(C)C)c2)n1)c1ccc(F)cc1F
0.39	C=CC(=O)Nc1cccc(Nc2nc(N/N=C(\C)c3ccc(F)cc3)ncc2Cl)c1
0.74	C=CC(=O)Nc1cccc(Nc2nc(N/N=C(\C)c3ccc(C)cc3)ncc2Cl)c1
1.35	C=CC(=O)Nc1cccc(Nc2nc(N/N=C/c3cn(Cc4ccccc4)c4ccccc34)ncc2Cl)c1
1.37	C/C(=N\Nc1ncc(Cl)c(Nc2cccc(NC(=O)/C=C/CN(C)C)c2)n1)c1ccc(C)cc1
0.17	CN(C)C/C=C/C(=O)Nc1cccc(Nc2nc(N/N=C/c3ccc(F)cc3F)ncc2Cl)c1
9.92	Nc1cccc(Nc2nc(N/N=C/c3ccc(F)cc3)ncc2Cl)c1

Target: Epidermal growth factor receptor (Homo sapiens, UniProt P00533, DELE746/T790M)
Experiment: not given
Format: protein assay
Settings: not given

Chain of Epidermal growth factor receptor (Homo sapiens, UniProt P00533, DELE746/T790M) (P00533 whole entry E746del/T790M, looked up): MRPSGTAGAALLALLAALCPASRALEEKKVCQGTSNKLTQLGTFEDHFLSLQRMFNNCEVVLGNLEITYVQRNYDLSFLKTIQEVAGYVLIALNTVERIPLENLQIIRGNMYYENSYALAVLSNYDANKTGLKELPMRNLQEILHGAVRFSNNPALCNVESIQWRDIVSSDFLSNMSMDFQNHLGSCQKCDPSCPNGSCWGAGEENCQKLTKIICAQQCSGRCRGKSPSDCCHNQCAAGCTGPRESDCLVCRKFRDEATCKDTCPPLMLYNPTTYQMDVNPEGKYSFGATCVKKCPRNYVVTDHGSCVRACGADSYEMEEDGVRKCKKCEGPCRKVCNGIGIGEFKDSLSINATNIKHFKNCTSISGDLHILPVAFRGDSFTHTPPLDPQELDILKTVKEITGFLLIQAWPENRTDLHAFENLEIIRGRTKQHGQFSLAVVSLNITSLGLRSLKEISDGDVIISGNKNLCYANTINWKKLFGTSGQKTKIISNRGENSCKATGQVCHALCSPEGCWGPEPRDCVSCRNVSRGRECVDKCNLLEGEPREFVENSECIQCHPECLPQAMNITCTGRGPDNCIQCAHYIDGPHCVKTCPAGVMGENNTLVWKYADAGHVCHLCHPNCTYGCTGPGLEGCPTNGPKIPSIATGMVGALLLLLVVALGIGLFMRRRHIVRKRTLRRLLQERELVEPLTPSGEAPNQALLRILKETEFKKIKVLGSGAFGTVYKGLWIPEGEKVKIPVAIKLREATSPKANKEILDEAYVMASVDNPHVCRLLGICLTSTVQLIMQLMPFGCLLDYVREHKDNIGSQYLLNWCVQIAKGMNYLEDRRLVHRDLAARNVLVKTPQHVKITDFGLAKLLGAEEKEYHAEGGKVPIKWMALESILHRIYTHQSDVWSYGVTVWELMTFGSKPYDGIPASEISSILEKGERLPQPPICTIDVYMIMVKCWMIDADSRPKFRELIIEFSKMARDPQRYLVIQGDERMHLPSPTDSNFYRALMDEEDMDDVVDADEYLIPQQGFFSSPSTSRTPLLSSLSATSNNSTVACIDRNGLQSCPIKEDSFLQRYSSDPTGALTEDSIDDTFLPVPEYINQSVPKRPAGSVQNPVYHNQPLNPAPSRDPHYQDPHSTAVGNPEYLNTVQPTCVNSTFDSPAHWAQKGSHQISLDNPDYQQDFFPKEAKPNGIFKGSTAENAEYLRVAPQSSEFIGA

SMILES	IC50 [µM]
C=CC(=O)Nc1cccc(Nc2nc(N/N=C/c3ccc(F)cc3)ncc2Cl)c1	0.57
CN(C)C/C=C/C(=O)Nc1cccc(Nc2nc(N/N=C/c3cn(Cc4ccccc4)c4ccccc34)ncc2Cl)c1	0.76

Further lines, results first:

IC50 [µM]	SMILES
1.91	C=CC(=O)Nc1cccc(Nc2nc(N/N=C/c3ccccc3F)ncc2Cl)c1
1.25	C/C(=N\Nc1ncc(Cl)c(Nc2cccc(NC(=O)/C=C/CN(C)C)c2)n1)c1ccc(F)cc1F
1.29	C=CC(=O)Nc1cccc(Nc2nc(N/N=C(\C)c3ccc(F)cc3)ncc2Cl)c1
5.11	CN(C)C/C=C/C(=O)Nc1cccc(Nc2nc(N/N=C/c3ccc(F)cc3F)ncc2Cl)c1
